# According to patent US10087144B2, “Agents for use in the treatment of cardiovascular and inflammatory diseases structurally based on 4(1 H)-quinolone” (UCL Business PLC, priority 2015, dated 2018):
# Key:
# [1] = system: rat mesenteric artery smooth muscle cells; assay: Ca2+ flux in response to Angiotensin II in isolated rat mesenteric artery smooth muscle cells (FLIPR); format: cell-based; settings: inhibition of Angiotensin II (100 nM) Ca2+ flux peak fluorescence; for inhibition at 1 µM / inhibition at 10 µM: Rattus norvegicus; for inhibition at 1 µM: read-out: % inhibition 1 μM; for inhibition at 10 µM: read-out: % inhibition 10 μM
# Method: Mesenteric artery smooth muscle cells were isolated from male Sprague-Dawley rats (200-250 g). Mesenteric arteries were dissected, cleared of extraneous tissue and incubated in an enzyme solution containing collagenase type I (1 mg/ml), soybean trypsin inhibitor (0.25 mg/ml), bovine albumin (1 mg/ml), CaCl2 (0.2 mM), 100 U/ml penicillin (100 U/ml) and streptomycin (100 μg/ml) in a humidified incubator with 5% CO2 in air. The enzyme solution was replenished at 30 min intervals and cells were pelleted by centrifugation (200 g, 5 min) and differentially plated (×2) for 15 min in Dulbecco's Modified Eagle's Medium (DMEM) supplemented with penicillin (100 U/ml), streptomycin (100 μg/ml), L-Glutamine (2 mM) and 10% heat inactivated New Zealand foetal calf serum. Cells were passaged by trypsinisation and viability determined by trypan blue exclusion.
# Measurements of Ca^2+ flux in response to Angiotensin II were conducted using a Fluorescent Imaging Plate Reader (FLIPR; Molecular Devices). Cells were plated at a density of 10,000 cells/well into black, clear-bottomed 96-well plates in DMEM supplemented with penicillin (100 U/ml), streptomycin (100 μg/ml), L-Glutamine (2 mM) and 10% heat inactivated New Zealand foetal calf serum. 24 hrs later the cells were incubated with Fluo-3-AM (4 μM) for 60 min at 37° C. Once dye-loaded, the cells were washed thoroughly with the proprietary assay buffer to remove any unincorporated dye. The cells were then incubated with varying concentrations of a number of representative NPR-C agonist molecules of the invention, C-type natriuretic peptide or vehicle (DMSO) and placed into the FLIPR. After 15 mins, Angiotensin II (100 nM) was automatically dispensed into each well and the fluorescence signal followed for 5 mins. Potency was determined by comparison of the peak fluorescence in each test well (run in triplicate) with that of the control (Angiotensin II alone). Background fluorescence (assay buffer only) was subtracted from all values.
# rat mesenteric arteries = assay: Vasoreactivity in rat mesenteric arteries in vitro (relaxation of U46619-contracted vessels, tension myograph); settings: for inhibition at 1 µM / inhibition at 3 µM / inhibition at 10 µM / inhibition at 30 µM / EC50: Rattus norvegicus; for inhibition at 1 µM / inhibition at 3 µM / inhibition at 10 µM / inhibition at 30 µM / % relaxation 1 μM / % relaxation 3 μM / % relaxation 10 μM / % relaxation 30 μM: U46619-contracted third-order arteries; for EC50: vasorelaxation, calculated from concentration-response curves
# Method: Male rats (Sprague-Dawley; 200-250 g) were stunned and killed by cervical dislocation. The mesentery was removed and third-order arteries mounted in an automated tension myograph (Danish Myotechnology). After an equilibration period of 45 min, vessels were normalized and diameter determined. Following normalization, each vessel was contracted repeatedly with the thromboxane A2-mimetic 9,11-dideoxy-11^α,9^α-epoxymethano-prostaglandin F2α (U46619; 1 μM) until the response was reproducible. The vessels were then washed to restore basal tone before contracting to approximately 50% of the maximum U46619-induced response. Once a stable response to U46619 was achieved, cumulative concentration-response curves were constructed with a variety of NPR-C agonists of the invention at varying concentrations (0.001-30 μM), or vehicle (DMSO). In some studies, concentration-response curves to NPR-C agonists were conducted in the presence of the NPR-C antagonist M372049 (10 μM). Only one curve to any one agonist was constructed in any single tissue.
Structure (SMILES),inhibition at 1 µM (rat mesenteric arteries),inhibition at 3 µM (rat mesenteric arteries),inhibition at 10 µM (rat mesenteric arteries),inhibition at 30 µM (rat mesenteric arteries),EC50 (rat mesenteric arteries),also measured
"O=C(O)c1cn(Cc2ccccc2)c2ccc(Br)cc2c1=O [Compound 27, 1-benzyl-6-bromo-4-oxo-1,4-dihydroquinoline-3-carboxylic acid]",–,–,–,–,–,inhibition at 1 µM ([1]; 1 μM compound): 0%; inhibition at 10 µM ([1]; 10 μM compound): 50%
O=C(O)c1c[nH]c2ccccc2c1=O [Compound 57],–,–,–,–,–,% inhibition 1 μM ([1]; 1 μM compound): 0%; % inhibition 10 μM ([1]; 10 μM compound): 35%
"C[C@H](NC(=O)c1cn(Cc2ccccc2)c2ccc(Br)cc2c1=O)C(=O)OC(C)(C)C [Compound 59, (S)-tert-butyl 2-(1-benzyl-6-bromo-4-oxo-1,4-dihydroquinoline-3-carboxamido)propanoate]",–,–,–,–,–,inhibition at 1 µM ([1]; 1 μM compound): 20%; inhibition at 10 µM ([1]; 10 μM compound): 90%
CC(C)(C)OC(=O)n1cc(C(=O)O)c(=O)c2ccccc21 [Compound 81],1%,1%,7%,25%,–,–
CC(C)C(NC(=O)c1cnc2ccccn2c1=O)C(=O)O (centres unmarked) [Compound 120],–,–,–,–,–,% relaxation 1 μM (rat mesenteric arteries): 0%; % relaxation 3 μM (rat mesenteric arteries): 3%; % relaxation 10 μM (rat mesenteric arteries): 3%; % relaxation 30 μM (rat mesenteric arteries): 20%
O=C(O)CNC(=O)c1cnc2ccccn2c1=O [Compound 121],–,–,–,–,–,% relaxation 1 μM (rat mesenteric arteries): 5%; % relaxation 3 μM (rat mesenteric arteries): 2%; % relaxation 10 μM (rat mesenteric arteries): 3%; % relaxation 30 μM (rat mesenteric arteries): 17%
CCn1cc(C(=O)O)c(=O)c2ccc(C)nc21 [Compound 137],–,–,–,–,–,% relaxation 1 μM (rat mesenteric arteries): 0%; % relaxation 3 μM (rat mesenteric arteries): 1%; % relaxation 10 μM (rat mesenteric arteries): 9%; % relaxation 30 μM (rat mesenteric arteries): 69%
"O=C(O)c1cn(Cc2cccc(Cl)c2)c2ccccc2c1=O [Compound 155, 1-(3-Chlorobenzyl)-4-oxo-1,4-dihydroquinoline-3-carboxylic acid]",4%,6%,10%,25%,–,–
"CCn1cc(C(=O)NCC(=O)O)c(=O)c2ccccc21 [Compound 171, 2-(1-Ethyl-4-oxo-1,4-dihydroquinoline-3-carboxamido)acetic acid]",2%,2%,8%,20%,> 50 µM,–
"O=C(O)CNC(=O)c1cn(Cc2cccc(Cl)c2)c2ccccc2c1=O [Compound 172, 2-(1-(3-Chlorobenzyl)-4-oxo-1,4-dihydroquinoline-3-carboxamido)acetic acid]",5%,20%,43%,91%,> 50 µM,–
"O=C(O)CNC(=O)c1cn(Cc2ccccc2F)c2ccccc2c1=O [Compound 173, 2-(1-(2-Fluorobenzyl)-4-oxo-1,4-dihydroquinoline-3-carboxamido)acetic acid]",4%,13%,15%,79%,> 50 µM,–
"COc1ccc(Cn2cc(C(=O)NCC(=O)O)c(=O)c3ccccc32)cc1 [Compound 174, 2-(1-(4-Methoxybenzyl)-4-oxo-1,4-dihydroquinoline-3-carboxamido)acetic acid]",4%,4%,8%,20%,> 50 µM,–
"Cc1cc(C)cc(Cn2cc(C(=O)NCC(=O)O)c(=O)c3ccccc32)c1 [Compound 175, 2-(1-(3.5-Dimethylbenzyl)-4-oxo-1,4-dihydroquinoline-3-carboxamido)acetic acid]",8%,8%,12%,88%,> 50 µM,–
"O=C(O)CNC(=O)c1cn(Cc2ccc(OC(F)(F)F)cc2)c2ccccc2c1=O [Compound 176, 2-(4-Oxo-1-(4-(trifluoromethoxy)benzyl)-1,4-dihydroquinoline-3-carboxamido)acetic acid]",8%,9%,17%,91%,> 50 µM,–
"O=C(O)CNC(=O)c1cn(Cc2ccccc2Cl)c2ccccc2c1=O [Compound 177, 2-(1-(2-Chlorobenzyl)-4-oxo-1,4-dihydroquinoline-3-carboxyamido)acetic acid]",1%,3%,6%,52%,> 50 µM,–
"O=C(O)CNC(=O)c1c[nH]c2ccccc2c1=O [Compound 178, 2-(4-Oxo-1,4-dihydroquinoline-3-carboxamido)acetic acid]",5%,6%,11%,16%,17.4 µM,–
"O=C(N[C@@H](Cc1ccccc1)C(=O)O)c1cn(Cc2ccccc2)c2ccc(Br)cc2c1=O [Compound 187, (S)-2-(1-benzyl-6-bromo-4-oxo-1,4-dihydroquinoline-3-carboxamido)-3-phenylpropanoic acid]",31%,57%,93%,100%,1.6 µM,–
"CC(C)C[C@H](NC(=O)c1cn(Cc2ccccc2)c2ccc(Br)cc2c1=O)C(=O)O [Compound 188, (S)-2-(1-benzyl-6-bromo-4-oxo-1,4-dihydroquinoline-3-carboxamido)-4-methylpentanoic acid]",4%,3%,2%,87%,> 50 µM,–
"C[C@H](NC(=O)c1cn(Cc2ccccc2)c2ccc(Br)cc2c1=O)C(=O)O [Compound 189, (S)-2-(1-benzyl-6-bromo-4-oxo-1,4-dihydroquinoline-3-carboxamido)propanoic acid]",4%,12%,64%,84%,–,–
"O=C(N[C@@H](Cc1ccccc1)C(=O)O)c1cn(Cc2ccccc2)c2ccccc2c1=O [Compound 200, (S)-2-(1-benzyl-4-oxo-1,4-dihydroquinoline-3-carboxamido)-3-phenylpropanoic acid]",4%,10%,67%,89%,> 50 µM,–
"CC(C)C[C@H](NC(=O)c1cn(Cc2ccccc2)c2ccccc2c1=O)C(=O)O [Compound 201, (S)-2-(1-benzyl-4-oxo-1,4-dihydroquinoline-3-carboxamido)-4-methylpentanoic acid]",0%,0%,0%,82%,> 50 µM,–
"C[C@H](NC(=O)c1cn(Cc2ccccc2)c2ccccc2c1=O)C(=O)O [Compound 202, (S)-2-(1-benzyl-4-oxo-1,4-dihydroquinoline-3-carboxamido)-2-methylethanoic acid]",2%,3%,20%,36%,20.3 µM,–
CC(NC(=O)c1cnc2ccccn2c1=O)C(=O)O (centres unmarked) [Compound 203],–,–,–,–,–,% relaxation 1 μM (rat mesenteric arteries): 7%; % relaxation 3 μM (rat mesenteric arteries): 6%; % relaxation 10 μM (rat mesenteric arteries): 28%; % relaxation 30 μM (rat mesenteric arteries): 50%
CC(C)CC(NC(=O)c1cnc2ccccn2c1=O)C(=O)O (centres unmarked) [Compound 204],–,–,–,–,–,% relaxation 1 μM (rat mesenteric arteries): 9%; % relaxation 3 μM (rat mesenteric arteries): 18%; % relaxation 10 μM (rat mesenteric arteries): 30%; % relaxation 30 μM (rat mesenteric arteries): 92%
O=C(NC(Cc1ccccc1)C(=O)O)c1cnc2ccccn2c1=O (centres unmarked) [Compound 205],–,–,–,–,–,% relaxation 1 μM (rat mesenteric arteries): −9%; % relaxation 3 μM (rat mesenteric arteries): 13%; % relaxation 10 μM (rat mesenteric arteries): 13%; % relaxation 30 μM (rat mesenteric arteries): 14%
